Data reported in ChEMBL document CHEMBL1201862, “PubChem BioAssay data set” (2004).
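Cultured in 96-well plates, cells were exposed to test compound for 48 hours across five concentrations. GI50: concentration for 50% inhibition of growth.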 Active and inactive are the calls of the source. No stated cut-off is given here; in the data, active = GI50 up to about 1.1 µM and inactive = higher.

Columns and labels:
Test in all cases: inhibition of tumour cell growth, NCI panel, 48 h
[1] = tested on: SF-295
[2] = tested on: ACHN
[3] = tested on: NCI-H226
[4] = tested on: SW-620
[5] = tested on: SF-539
[6] = tested on: HCC 2998
[7] = tested on: SN12C
[8] = tested on: SF-268
[9] = tested on: OVCAR-5
[10] = tested on: SK-OV-3
[11] = tested on: NCI-H522
[12] = tested on: K562
[13] = tested on: MDA-N
[14] = tested on: IGROV-1
[15] = tested on: UACC-257
[16] = tested on: MDA-MB-435
[17] = tested on: T47D
[18] = tested on: MCF7
[19] = tested on: NCI-H460
[20] = tested on: HT-29
[21] = tested on: TK-10
[22] = tested on: HOP-62
[23] = tested on: SR
[24] = tested on: CCRF-CEM
[25] = tested on: UACC-62
[26] = tested on: OVCAR-3
[27] = tested on: LOX IMVI
[28] = tested on: HOP-92
[29] = tested on: HCT-116
[30] = tested on: U-251
[31] = tested on: RXF 393
[32] = tested on: BT-549
[33] = tested on: OVCAR-8
[34] = tested on: SNB-75
[35] = tested on: PC-3
[36] = tested on: RPMI-8226
[37] = tested on: Hs-578T
[38] = tested on: MDA-MB-231
[39] = tested on: M14
[40] = tested on: A549
[41] = tested on: A498
[42] = tested on: SNB-19
[43] = tested on: NCI/ADR-RES
[44] = tested on: EKVX
[45] = tested on: HL-60
[46] = tested on: CAKI-1
[47] = tested on: HCT-15
[48] = tested on: 786-0
[49] = tested on: SK-MEL-28
[50] = tested on: SK-MEL-2
[51] = tested on: NCI-H23
[52] = tested on: MOLT-4
[53] = tested on: Malme-3M
[54] = tested on: UO-31
[55] = tested on: KM12
[56] = tested on: OVCAR-4
[57] = tested on: SK-MEL-5
[58] = tested on: DU-145
[59] = tested on: COLO 205

Measured: GI50

CC(=O)NNc1nc(C)c(C(/C=C/c2ccc3c(c2)OCO3)=N/NC(=O)c2ccncc2)s1
inactive: [1] > 100 µM | [2] > 100 µM | [3] > 100 µM | [4] > 100 µM | [5] > 100 µM | [6] > 100 µM | [7] > 100 µM | [8] > 100 µM | [9] > 100 µM | [10] > 100 µM | [11] > 100 µM | [12] > 100 µM | [13] > 100 µM | [14] > 100 µM | [15] > 100 µM | [16] > 100 µM | [17] > 100 µM | [18] > 100 µM | [19] > 100 µM | [20] > 100 µM | [21] > 100 µM | [22] > 100 µM | [23] > 100 µM | [24] > 100 µM | [25] > 100 µM | [26] > 100 µM | [27] > 100 µM | [28] > 100 µM | [29] > 100 µM | [30] > 100 µM | [31] > 100 µM | [32] > 100 µM | [33] > 100 µM | [34] > 100 µM | [35] > 100 µM | [36] > 100 µM | [37] > 100 µM | [38] > 100 µM | [39] > 100 µM | [40] > 100 µM | [41] > 100 µM | [42] > 100 µM | [43] > 100 µM | [44] 62.5 µM | [45] > 100 µM | [46] > 100 µM | [48] > 100 µM | [49] > 100 µM | [50] > 100 µM | [51] > 100 µM | [52] > 100 µM | [53] > 100 µM | [54] > 100 µM | [55] > 100 µM | [56] > 100 µM | [57] > 100 µM
> 100 µM: [47]

CCCCCCCCCC[C@H](O)[C@H](O)CC[C@@H](O)[C@H]1CC[C@@H]([C@H]2CC[C@H](CCCCCCC[C@@H](O)CC3=C[C@H](C)OC3=O)O2)O1
inactive: [1] 1.22 µM | [2] 17.4 µM | [3] 1.47 µM | [4] 2.56 µM | [5] 4.48 µM | [6] 18.8 µM | [7] 4.06 µM | [8] 2.15 µM | [9] 6.28 µM | [11] 15.1 µM | [12] 1.7 µM | [13] 2.82 µM | [14] 2.72 µM | [15] 1.55 µM | [16] 1.31 µM | [17] 3.16 µM | [18] 1.16 µM | [19] 1.82 µM | [20] 2.2 µM | [21] 4.95 µM | [22] 2.42 µM | [24] 2.52 µM | [25] 1.67 µM | [26] 1.42 µM | [27] 1.33 µM | [28] 6.32 µM | [29] 2.64 µM | [30] 41.5 µM | [31] 4.48 µM | [32] 37.5 µM | [33] 2.95 µM | [34] 2.41 µM | [35] 2.23 µM | [37] 2.79 µM | [38] 2.31 µM | [39] 3.34 µM | [40] 1.84 µM | [41] 8.97 µM | [42] 1.84 µM | [43] 1.25 µM | [58] 4.65 µM | [44] 1.46 µM | [45] 1.9 µM | [46] 2.25 µM | [48] 6.3 µM | [49] 2.41 µM | [50] 1.72 µM | [52] 2.26 µM | [53] 15.3 µM | [59] 1.71 µM | [54] 1.22 µM | [55] 2.22 µM | [56] 24.4 µM
active: [36] 0.82 µM | [51] 0.00746 µM | [57] 1.06 µM
3.87 µM: [47]
